# According to PubChem BioAssay AID1259418 (Broad Institute, 2018):
# Values joined by “and” are separate entries in the source; they are usually repeats but may differ in a detail not shown here. Identical values can stand only once. Records with an inconclusive call do not appear. Active and inactive are the calls of the source.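 How the source made its calls: active means fitted half-maximal concentration of signal decrease at or below twice the sample's top tested concentration; inconclusive means flat curve between -70 and -30 percent, or poor fit; inactive means flat within 30 percent, signal rise, or potency above limit.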
# Target: T. gondii ME49Luc in IFN-y HeLa, luciferase, 72 h
# Assay: inhibitors of Toxoplasma growth in IFN-γ-primed HeLa – cell-based, ME49Luc, luciferase, 72 h, dose response (AID 1259418)
row,SMILES,AC50
1,CC(C)n1ncc(NC(=O)Cn2ccc(-c3ccc(C(F)(F)F)cc3)n2)n1,24.3 µM
2,CN1C(=O)c2cc(NC(=O)Cc3cccs3)ccc2OC[C@@H]2O[C@H](CC(=O)NCC3CCCCC3)CC[C@@H]21,> 39 µM (inactive)
3,O=C(CC1N=C2c3ccccc3N=C(SCc3ccc(Cl)cc3)N2C1=O)NCc1cccs1 (stereo unspecified),29.4 µM
4,CCS(=O)(=O)N1CCc2nc(-c3cccc(F)c3)nc(NC3CC3)c2C1,31.4 µM
5,C/C=C/c1ccc([C@H]2[C@H](CO)N3CCCCN(S(=O)(=O)c4ccc(OC)cc4)C[C@@H]23)cc1,> 39 µM (inactive)
6,Cc1nc2c(cnn2-c2ccccc2)c(=O)n1-c1cccc2ccccc12,1.32 µM
7,COc1cccc(NC(=O)N2CC(=O)N3[C@H](CO)[C@H](c4ccc(C#CCC5CCCC5)cc4)[C@@H]3C2)c1,17.6 µM
8,C/C=C/c1ccc([C@H]2[C@@H](CO)N3CCCCN(S(=O)(=O)c4ccc(OC)cc4)C[C@H]23)cc1,15.7 µM
9,COc1ccc(-c2nc(NCc3cccnc3)c3ccccc3n2)cc1,21.7 µM
10,Cc1ccccc1-c1ccc(C2[C@@H]3CN(Cc4cncnc4)C[C@H]2N3)cc1 (stereo partly specified),19 µM
11,Cc1cccc(-c2ccc([C@H]3[C@@H](CO)N4CCCCN(S(=O)(=O)c5ccccc5F)C[C@H]34)cc2)c1,16.9 µM and 13.6 µM
12,Cc1ccc(C(=O)Nc2ccc3c(c2)CCC(=O)N3)s1,11.6 µM
13,N#Cc1ccc(-c2ccc(C3[C@@H]4CN(C(=O)C5CCCCC5)C[C@H]3N4)cc2)cc1 (stereo partly specified),17.8 µM and 28.4 µM and 27.6 µM
14,O=S(=O)(c1ccc(Cl)s1)N1CCC2(CC1)NCCN=C2NCc1cc(F)cc(F)c1,18 µM
15,COc1ccccc1CNC(=O)CC1N=C2c3ccccc3N=C(SCc3cc(=O)n4cc(Cl)ccc4n3)N2C1=O (stereo unspecified),29.6 µM
16,CN(C[C@H]1N[C@@H](CO)[C@H]1c1ccc(-c2ccc(F)cc2)cc1)C(=O)C1CCC1,16.2 µM
17,Cc1ccc(N(Cc2nc(-c3cccc(Cl)c3)oc2C)S(=O)(=O)c2cccs2)cc1,5.3 µM and 7.96 µM
18,Cc1nc2ccccn2c1CN(C)Cc1cnn(-c2ccccc2)c1,> 39 µM (inactive)
19,Cc1ccccc1S(=O)(=O)N1CC[C@@H]2[C@H]1c1cc(-c3cccc(F)c3)ccc1N(C)[C@H]2CO,17.7 µM
20,CC(C)CC#Cc1ccc([C@@H]2[C@H](CO)N3C(=O)CN(C(=O)c4cccc(F)c4)C[C@@H]23)cc1,18.2 µM
21,Cc1cccc(-n2ncc3c(NCc4cccc(Cl)c4)ncnc32)c1,24.5 µM
22,COc1ccccc1N(Cc1nc(-c2ccc(C)cc2)oc1C)S(=O)(=O)c1ccccc1C,15.1 µM
23,CN1c2ccc(-c3ccc(C#N)cc3)cc2[C@@H]2[C@@H](CCN2S(=O)(=O)c2ccc(F)cc2)[C@@H]1CO,15.8 µM

row,SMILES,AC50
1,CC(C)Cc1ccc(S(=O)(=O)N2CCC3(CC2)NCCN=C3NCc2ccc(Cl)cc2)cc1,12.4 µM
2,CC(C)Cc1ccc(S(=O)(=O)N2CCC3(CC2)NCCN=C3NCc2ccccc2)cc1,14.4 µM
3,COc1ccc2c(c1)NC1(CCN(C(=O)Cc3ccc(OC)c(OC)c3)CC1)c1cccn1-2,> 39 µM (inactive)
4,OC[C@H]1Nc2ccc(-c3cccc(F)c3)cc2[C@@H]2[C@H]1CCN2Cc1ccc(F)cc1,20 µM
5,O=C(Nc1cccc(F)c1)N1CCCCN2[C@H](C1)[C@@H](c1ccc(C#Cc3cccnc3)cc1)[C@@H]2CO,10.3 µM
6,CCc1ccc(S(=O)(=O)Nc2ccc(-c3nc(-c4ccc(C)cc4C)co3)cc2)cc1,8.52 µM
7,Fc1ccccc1CSc1nc(Nc2ccc3c(c2)OCO3)c2ccccc2n1,33.2 µM
8,O=C1CCc2cc(S(=O)(=O)NC(c3ccccc3)c3ccccc3)cc3c2N1CCC3,12.8 µM
9,O=C(c1cccc2[nH]ccc12)N1CCCC1c1nc(-c2cccc(Cl)c2)no1 (stereo unspecified),23.3 µM
10,COc1cccc(S(=O)(=O)N2CCCCN3[C@H](CO)[C@@H](c4ccc(C#CCC(C)C)cc4)[C@H]3C2)c1,24.9 µM and 10.3 µM and 9.5 µM
11,O=C(CC1CC1)N1CC[C@@H]2[C@H]1c1cc(-c3ccc(F)cc3)ccc1N[C@@H]2CO,19.7 µM
12,O=C1CCc2cc(S(=O)(=O)N3CCc4ccccc43)cc3c2N1CCC3,> 39 µM (inactive)
13,Cc1cc(C)c(S(=O)(=O)N2CCC3(CC2)NCCN=C3NC2CCCCC2)cc1C,6.34 µM
14,COc1ccc(CNC2=NCCNC23CCN(S(=O)(=O)c2ccc(C)cc2C)CC3)cc1,18.6 µM
15,O=S(=O)(c1ccccc1)N1CCCCN2[C@H](CO)[C@@H](c3ccc(C#CC4CCCC4)cc3)[C@@H]2C1,13.4 µM
16,COCC1(C(=O)N2CCc3c(nc(-c4ccccc4)[nH]c3=O)C2)CCC1,36.2 µM
17,COc1ccc(NC(=O)N2CCCCN3[C@H](C2)[C@@H](c2ccc(-c4ccccc4F)cc2)[C@@H]3CO)cc1,32.8 µM
18,CCN1CCN(c2nc(-c3ccc(OC)cc3)nc3ccccc23)CC1,17.4 µM
19,COC(=O)c1ccccc1NC(=O)COc1nc(C)nc2ccccc12,20.9 µM
20,CN1c2ccc(-c3ccccc3)cc2[C@H]2[C@H](CCN2C(=O)CC2CC2)[C@@H]1CO,18.8 µM
21,CCOc1ccc(-c2nc(CN(c3ccc(OC)cc3)S(=O)(=O)c3ccccc3C)c(C)o2)cc1,11.8 µM
22,O=S(=O)(c1cccs1)N1CCCCN2[C@H](CO)[C@H](c3ccc(/C=C/c4ccccc4)cc3)[C@@H]2C1,18.8 µM
23,C=CCN1CCC2(CC1)CC(NCc1ccc(C)s1)c1ccccc1O2 (stereo unspecified),12.1 µM
